Experimental data from US9340590B2 (priority 2011, dated 2016).
pIC50: −log10 of the molar value. Positions of bridges follow the written chain, without caps; N, C: chain ends. Non-standard residues stand in square brackets, D forms with d. Residues, ends and D or L forms follow the SMILES beside them. Cit = NC(=O)NCCC[C@H](N)C(=O)O; Lys(Me) = CNCCCC[C@H](N)C(=O)O

Tests used:
Assay in all cases: cell-based
hNav1.7 = hNav1.7 (Homo sapiens, UniProt Q15858); type: cell-based; details: IonWorks Quattro, use-dependent block, hNav1.7; read-out: IWQ Use Nav1.7
hNav1.5 = hNav1.5 (Homo sapiens, UniProt Q14524); details: IonWorks Quattro, use-dependent block, hNav1.5; read-out: IWQ Use Nav1.5
hNav1.3 = hNav1.3 (Homo sapiens, UniProt Q9NY46); details: IonWorks Quattro, use-dependent block, hNav1.3; read-out: IWQ Use Nav1.3
Sequence of hNav1.3 (Q9NY46 whole entry, looked up): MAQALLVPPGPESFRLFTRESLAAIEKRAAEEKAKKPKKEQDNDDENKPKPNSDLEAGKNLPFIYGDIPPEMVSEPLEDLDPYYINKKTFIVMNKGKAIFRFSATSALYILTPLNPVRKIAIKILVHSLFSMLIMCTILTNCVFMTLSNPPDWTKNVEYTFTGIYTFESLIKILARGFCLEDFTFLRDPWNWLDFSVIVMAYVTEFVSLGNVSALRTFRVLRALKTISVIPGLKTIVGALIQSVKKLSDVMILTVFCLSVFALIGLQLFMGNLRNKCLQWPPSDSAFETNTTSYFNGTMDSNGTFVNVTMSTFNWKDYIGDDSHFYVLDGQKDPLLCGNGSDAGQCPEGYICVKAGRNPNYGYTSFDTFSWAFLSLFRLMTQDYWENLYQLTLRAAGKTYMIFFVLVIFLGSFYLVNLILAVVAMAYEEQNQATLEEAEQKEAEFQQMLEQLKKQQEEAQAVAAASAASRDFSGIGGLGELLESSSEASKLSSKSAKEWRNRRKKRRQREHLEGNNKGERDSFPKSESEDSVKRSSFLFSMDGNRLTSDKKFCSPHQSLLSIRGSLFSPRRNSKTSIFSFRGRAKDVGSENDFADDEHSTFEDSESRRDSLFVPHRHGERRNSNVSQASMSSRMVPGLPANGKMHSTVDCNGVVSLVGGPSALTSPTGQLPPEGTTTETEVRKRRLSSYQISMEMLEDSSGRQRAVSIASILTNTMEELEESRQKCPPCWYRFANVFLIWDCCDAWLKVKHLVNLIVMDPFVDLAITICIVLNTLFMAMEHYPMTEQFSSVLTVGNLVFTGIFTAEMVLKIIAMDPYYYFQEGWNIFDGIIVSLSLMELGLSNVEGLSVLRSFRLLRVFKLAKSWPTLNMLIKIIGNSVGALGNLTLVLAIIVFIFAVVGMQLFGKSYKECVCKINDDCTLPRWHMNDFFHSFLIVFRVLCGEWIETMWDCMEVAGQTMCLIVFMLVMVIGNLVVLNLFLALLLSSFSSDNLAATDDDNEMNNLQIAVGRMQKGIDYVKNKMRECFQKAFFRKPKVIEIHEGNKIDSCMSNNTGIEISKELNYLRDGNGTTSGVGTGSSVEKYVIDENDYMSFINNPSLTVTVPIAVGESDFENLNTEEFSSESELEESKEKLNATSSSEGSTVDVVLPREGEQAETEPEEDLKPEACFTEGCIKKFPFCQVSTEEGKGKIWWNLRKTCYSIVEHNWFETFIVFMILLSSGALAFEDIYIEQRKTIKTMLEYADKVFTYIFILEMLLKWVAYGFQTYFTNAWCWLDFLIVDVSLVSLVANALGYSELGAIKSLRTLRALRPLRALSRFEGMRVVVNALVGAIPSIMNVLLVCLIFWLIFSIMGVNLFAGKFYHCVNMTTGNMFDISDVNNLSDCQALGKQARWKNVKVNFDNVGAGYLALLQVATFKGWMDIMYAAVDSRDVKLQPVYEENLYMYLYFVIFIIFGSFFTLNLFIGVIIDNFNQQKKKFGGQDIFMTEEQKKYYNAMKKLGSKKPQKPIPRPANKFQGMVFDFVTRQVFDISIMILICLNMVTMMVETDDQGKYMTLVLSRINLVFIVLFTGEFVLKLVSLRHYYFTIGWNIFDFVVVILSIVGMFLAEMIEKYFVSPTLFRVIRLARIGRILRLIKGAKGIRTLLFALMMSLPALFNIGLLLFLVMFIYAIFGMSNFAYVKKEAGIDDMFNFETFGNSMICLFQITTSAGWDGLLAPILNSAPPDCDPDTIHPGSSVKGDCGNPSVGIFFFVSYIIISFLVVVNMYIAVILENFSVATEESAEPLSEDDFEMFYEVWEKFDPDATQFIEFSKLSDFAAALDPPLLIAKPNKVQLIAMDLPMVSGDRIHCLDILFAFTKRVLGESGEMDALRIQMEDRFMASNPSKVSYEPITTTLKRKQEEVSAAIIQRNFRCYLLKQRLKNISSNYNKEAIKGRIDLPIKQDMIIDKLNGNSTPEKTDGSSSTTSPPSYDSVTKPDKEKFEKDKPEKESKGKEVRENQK

Sequence of hNav1.5 (Q14524 whole entry, looked up): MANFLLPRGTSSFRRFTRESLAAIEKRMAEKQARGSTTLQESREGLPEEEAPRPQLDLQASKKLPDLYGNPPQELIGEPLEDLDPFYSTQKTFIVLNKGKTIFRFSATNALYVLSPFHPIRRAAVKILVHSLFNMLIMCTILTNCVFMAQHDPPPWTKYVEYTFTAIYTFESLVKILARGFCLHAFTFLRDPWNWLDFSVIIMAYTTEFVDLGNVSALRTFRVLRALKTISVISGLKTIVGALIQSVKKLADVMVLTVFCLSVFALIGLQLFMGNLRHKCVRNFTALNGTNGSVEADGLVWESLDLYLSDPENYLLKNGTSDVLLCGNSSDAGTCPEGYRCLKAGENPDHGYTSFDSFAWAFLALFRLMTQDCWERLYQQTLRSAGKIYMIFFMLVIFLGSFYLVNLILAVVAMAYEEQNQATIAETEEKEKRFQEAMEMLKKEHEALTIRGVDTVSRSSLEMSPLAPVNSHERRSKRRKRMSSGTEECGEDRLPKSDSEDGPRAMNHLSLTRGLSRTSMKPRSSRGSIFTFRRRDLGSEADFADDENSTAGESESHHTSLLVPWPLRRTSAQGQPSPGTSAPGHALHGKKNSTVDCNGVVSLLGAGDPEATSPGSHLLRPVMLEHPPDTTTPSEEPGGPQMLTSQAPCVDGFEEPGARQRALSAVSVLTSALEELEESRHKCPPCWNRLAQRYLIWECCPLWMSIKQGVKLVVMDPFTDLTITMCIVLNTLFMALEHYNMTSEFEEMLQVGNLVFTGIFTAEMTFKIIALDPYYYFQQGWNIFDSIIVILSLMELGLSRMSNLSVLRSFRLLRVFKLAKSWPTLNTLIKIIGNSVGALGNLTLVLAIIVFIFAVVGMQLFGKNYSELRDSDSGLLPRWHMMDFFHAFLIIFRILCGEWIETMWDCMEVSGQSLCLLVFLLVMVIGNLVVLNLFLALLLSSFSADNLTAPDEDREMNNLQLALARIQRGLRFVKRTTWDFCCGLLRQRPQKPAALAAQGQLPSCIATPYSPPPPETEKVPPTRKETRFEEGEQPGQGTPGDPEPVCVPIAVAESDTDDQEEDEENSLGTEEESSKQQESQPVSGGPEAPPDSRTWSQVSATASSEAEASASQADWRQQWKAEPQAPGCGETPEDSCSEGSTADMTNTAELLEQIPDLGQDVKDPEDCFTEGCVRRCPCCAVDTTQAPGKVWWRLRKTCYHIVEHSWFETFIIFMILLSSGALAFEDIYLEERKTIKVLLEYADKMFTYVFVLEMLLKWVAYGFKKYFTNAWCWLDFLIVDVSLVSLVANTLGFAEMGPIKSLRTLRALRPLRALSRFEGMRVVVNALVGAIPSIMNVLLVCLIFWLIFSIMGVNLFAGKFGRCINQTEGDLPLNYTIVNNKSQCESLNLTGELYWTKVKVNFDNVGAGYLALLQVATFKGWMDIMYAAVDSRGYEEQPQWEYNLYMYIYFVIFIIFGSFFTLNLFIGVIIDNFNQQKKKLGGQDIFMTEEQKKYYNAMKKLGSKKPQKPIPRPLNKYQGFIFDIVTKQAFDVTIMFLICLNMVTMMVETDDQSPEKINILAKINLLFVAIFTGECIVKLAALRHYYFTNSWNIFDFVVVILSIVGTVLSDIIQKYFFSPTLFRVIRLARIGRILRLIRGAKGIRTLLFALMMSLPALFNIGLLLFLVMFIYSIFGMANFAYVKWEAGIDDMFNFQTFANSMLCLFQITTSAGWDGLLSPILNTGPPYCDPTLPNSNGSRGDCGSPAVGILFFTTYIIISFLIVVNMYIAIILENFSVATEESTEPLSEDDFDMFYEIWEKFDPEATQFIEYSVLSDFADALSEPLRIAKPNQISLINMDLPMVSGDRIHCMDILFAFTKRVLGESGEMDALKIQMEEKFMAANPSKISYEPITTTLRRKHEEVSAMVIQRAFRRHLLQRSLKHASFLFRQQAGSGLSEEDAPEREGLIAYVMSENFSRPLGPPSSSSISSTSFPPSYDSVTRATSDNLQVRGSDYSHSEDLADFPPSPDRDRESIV

Row | Structure (SMILES) | pIC50 (hNav1.7) | pIC50 (hNav1.5) | pIC50 (hNav1.3)
1 | CC[C@H](C)[C@@H]1NC(=O)[C@@H]2CSSC[C@@H]3NC(=O)[C@H](C(C)C)NC(=O)[C@H](CC(C)C)NC(=O)[C@H](CC(N)=O)NC(=O)[C@@H]4CCCN4C(=O)[C@H](CCCNC(=N)N)NC(=O)[C@H](CSSC[C@H](NC(=O)[C@@H](N)CC(=O)O)C(=O)N[C@@H](CC(C)C)C(=O)NCC(=O)N[C@@H](C)C(=O)N[C@@H](CCSC)C(=O)N[C@@H](CCCNC(=N)N)C(=O)N[C@@H](CCCCN)C(=O)N2)NC(=O)[C@H](CSSC[C@@H](C(=O)N[C@@H](CCCCN)C(=O)N[C@@H](Cc2ccc(O)cc2)C(=O)N[C@H](C(=O)N[C@@H](Cc2ccccc2)C(N)=O)C(C)C)NC(=O)[C@H](Cc2c[nH]c4ccccc24)NC(=O)[C@H](Cc2ccccc2)NC(=O)[C@H](Cc2c[nH]cn2)NC(=O)[C@H]([C@@H](C)O)NC(=O)[C@H](CCCNC(=N)N)NC(=O)[C@H](CO)NC3=O)NC(=O)[C@H](CCCCN)NC(=O)[C@H](CC(=O)O)NC(=O)[C@H](CC(N)=O)NC(=O)[C@H](CC(=O)O)NC(=O)[C@@H]2CCCN2C1=O [compound 764] (H-DCLGAMRKCIPDNDKCCRPNLVCSRTHFWCKYVF-NH2; disulfide 2-17, 9-23, 16-30) | 5.39 | 4.38 | < 5.30
2 | CC[C@H](C)[C@@H]1NC(=O)[C@@H]2CSSC[C@@H]3NC(=O)[C@H](C(C)C)NC(=O)[C@H](CC(C)C)NC(=O)[C@H](CC(N)=O)NC(=O)[C@@H]4CCCN4C(=O)[C@H](CCCNC(=N)N)NC(=O)[C@H](CSSC[C@H](NC(=O)[C@@H](N)CC(=O)O)C(=O)N[C@@H](CC(C)C)C(=O)NCC(=O)N[C@@H](C)C(=O)N[C@@H](CCSC)C(=O)N[C@@H](CCCNC(=N)N)C(=O)N[C@@H](CCCCN)C(=O)N2)NC(=O)[C@H](CSSC[C@@H](C(=O)N[C@@H](CCCCN)C(=O)N[C@@H](Cc2ccc(O)cc2)C(=O)N[C@H](C(=O)N[C@@H](Cc2ccccc2)C(N)=O)C(C)C)NC(=O)[C@H](Cc2c[nH]c4ccccc24)NC(=O)[C@H](Cc2ccc(O)cc2)NC(=O)[C@H](Cc2c[nH]cn2)NC(=O)[C@H]([C@@H](C)O)NC(=O)[C@H](CCCNC(=N)N)NC(=O)[C@H](CO)NC3=O)NC(=O)[C@H](CCCCN)NC(=O)[C@H](CC(=O)O)NC(=O)[C@H](CC(N)=O)NC(=O)[C@H](CC(=O)O)NC(=O)[C@@H]2CCCN2C1=O [compound 765] (H-DCLGAMRKCIPDNDKCCRPNLVCSRTHYWCKYVF-NH2; disulfide 2-17, 9-23, 16-30) | 6.10 | 4.38 | 5.85
3 | CC[C@H](C)[C@@H]1NC(=O)[C@@H]2CSSC[C@@H]3NC(=O)[C@H](C(C)C)NC(=O)[C@H](CC(C)C)NC(=O)[C@H](CC(N)=O)NC(=O)[C@@H]4CCCN4C(=O)[C@H](CCCNC(=N)N)NC(=O)[C@H](CSSC[C@H](NC(=O)[C@@H](N)CC(=O)O)C(=O)N[C@@H](CC(C)C)C(=O)NCC(=O)N[C@@H](C)C(=O)N[C@@H](CCSC)C(=O)N[C@@H](CCCNC(=N)N)C(=O)N[C@@H](CCCCN)C(=O)N2)NC(=O)[C@H](CSSC[C@@H](C(=O)N[C@@H](CCCCN)C(=O)N[C@@H](Cc2ccc(O)cc2)C(=O)N[C@H](C(=O)N[C@@H](Cc2ccccc2)C(N)=O)C(C)C)NC(=O)[C@H](Cc2c[nH]c4ccccc24)NC(=O)[C@H](CC(C)C)NC(=O)[C@H](Cc2c[nH]cn2)NC(=O)[C@H]([C@@H](C)O)NC(=O)[C@H](CCCNC(=N)N)NC(=O)[C@H](CO)NC3=O)NC(=O)[C@H](CCCCN)NC(=O)[C@H](CC(=O)O)NC(=O)[C@H](CC(N)=O)NC(=O)[C@H](CC(=O)O)NC(=O)[C@@H]2CCCN2C1=O [compound 766] (H-DCLGAMRKCIPDNDKCCRPNLVCSRTHLWCKYVF-NH2; disulfide 2-17, 9-23, 16-30) | 5.96 | 4.31 | 5.57
4 | CC[C@H](C)[C@@H]1NC(=O)[C@@H]2CSSC[C@@H]3NC(=O)[C@H](C(C)C)NC(=O)[C@H](CC(C)C)NC(=O)[C@H](CC(N)=O)NC(=O)[C@@H]4CCCN4C(=O)[C@H](CCCNC(=N)N)NC(=O)[C@H](CSSC[C@H](NC(=O)[C@@H](N)CC(=O)O)C(=O)N[C@@H](CC(C)C)C(=O)NCC(=O)N[C@@H](C)C(=O)N[C@@H](CCSC)C(=O)N[C@@H](CCCNC(=N)N)C(=O)N[C@@H](CCCCN)C(=O)N2)NC(=O)[C@H](CSSC[C@@H](C(=O)N[C@@H](CCCCN)C(=O)N[C@@H](Cc2ccc(O)cc2)C(=O)N[C@H](C(=O)N[C@@H](Cc2ccccc2)C(N)=O)C(C)C)NC(=O)[C@H](Cc2c[nH]c4ccccc24)NC(=O)[C@H](CC(N)=O)NC(=O)[C@H](Cc2c[nH]cn2)NC(=O)[C@H]([C@@H](C)O)NC(=O)[C@H](CCCNC(=N)N)NC(=O)[C@H](CO)NC3=O)NC(=O)[C@H](CCCCN)NC(=O)[C@H](CC(=O)O)NC(=O)[C@H](CC(N)=O)NC(=O)[C@H](CC(=O)O)NC(=O)[C@@H]2CCCN2C1=O [compound 767] (H-DCLGAMRKCIPDNDKCCRPNLVCSRTHNWCKYVF-NH2; disulfide 2-17, 9-23, 16-30) | 5.77 | < 4.30 | 5.49
5 | CC[C@H](C)[C@@H]1NC(=O)[C@@H]2CSSC[C@@H]3NC(=O)[C@H](C(C)C)NC(=O)[C@H](CC(C)C)NC(=O)[C@H](CC(N)=O)NC(=O)[C@@H]4CCCN4C(=O)[C@H](CCCNC(=N)N)NC(=O)[C@H](CSSC[C@H](NC(=O)[C@@H](N)CC(=O)O)C(=O)N[C@@H](CC(C)C)C(=O)NCC(=O)N[C@@H](C)C(=O)N[C@@H](CCSC)C(=O)N[C@@H](CCCNC(=N)N)C(=O)N[C@@H](CCCCN)C(=O)N2)NC(=O)[C@H](CSSC[C@@H](C(=O)N[C@@H](CCCCN)C(=O)N[C@@H](Cc2ccc(O)cc2)C(=O)N[C@H](C(=O)N[C@@H](Cc2ccccc2)C(N)=O)C(C)C)NC(=O)[C@H](Cc2c[nH]c4ccccc24)NC(=O)[C@H](CCCCN)NC(=O)[C@H](Cc2c[nH]cn2)NC(=O)[C@H]([C@@H](C)O)NC(=O)[C@H](CCCNC(N)=O)NC(=O)[C@H](CO)NC3=O)NC(=O)[C@H](CCCCN)NC(=O)[C@H](CC(=O)O)NC(=O)[C@H](CC(N)=O)NC(=O)[C@H](CC(=O)O)NC(=O)[C@@H]2CCCN2C1=O [compound 768] (H-DCLGAMRKCIPDNDKCCRPNLVCS[Cit]THKWCKYVF-NH2; disulfide 2-17, 9-23, 16-30) | 5.74 | 4.63 | 5.49
6 | CC[C@H](C)[C@@H]1NC(=O)[C@@H]2CSSC[C@@H]3NC(=O)[C@H](C(C)C)NC(=O)[C@H](CC(C)C)NC(=O)[C@H](CC(N)=O)NC(=O)[C@@H]4CCCN4C(=O)[C@H](CCCNC(=N)N)NC(=O)[C@H](CSSC[C@H](NC(=O)[C@@H](N)CC(=O)O)C(=O)N[C@@H](CC(C)C)C(=O)NCC(=O)N[C@@H](C)C(=O)N[C@@H](CCSC)C(=O)N[C@@H](CCCNC(=N)N)C(=O)N[C@@H](CCCCN)C(=O)N2)NC(=O)[C@H](CSSC[C@@H](C(=O)N[C@@H](CCCCN)C(=O)N[C@@H](Cc2ccc(O)cc2)C(=O)N[C@H](C(=O)N[C@@H](Cc2ccccc2)C(N)=O)C(C)C)NC(=O)[C@H](Cc2c[nH]c4ccccc24)NC(=O)[C@H](CC(=O)O)NC(=O)[C@H](Cc2c[nH]cn2)NC(=O)[C@H]([C@@H](C)O)NC(=O)[C@H](CCCNC(=N)N)NC(=O)[C@H](CO)NC3=O)NC(=O)[C@H](CCCCN)NC(=O)[C@H](CC(=O)O)NC(=O)[C@H](CC(N)=O)NC(=O)[C@H](CC(=O)O)NC(=O)[C@@H]2CCCN2C1=O [compound 769] (H-DCLGAMRKCIPDNDKCCRPNLVCSRTHDWCKYVF-NH2; disulfide 2-17, 9-23, 16-30) | < 5.30 | 4.41 | < 5.30
7 | CC[C@H](C)[C@@H]1NC(=O)[C@@H]2CSSC[C@@H]3NC(=O)[C@H](C(C)C)NC(=O)[C@H](CC(C)C)NC(=O)[C@H](CC(N)=O)NC(=O)[C@@H]4CCCN4C(=O)[C@H](CCCNC(=N)N)NC(=O)[C@H](CSSC[C@H](NC(=O)[C@@H](N)CC(=O)O)C(=O)N[C@@H](CC(C)C)C(=O)NCC(=O)N[C@@H](C)C(=O)N[C@@H](CCSC)C(=O)N[C@@H](CCCNC(=N)N)C(=O)N[C@@H](CCCCN)C(=O)N2)NC(=O)[C@H](CSSC[C@@H](C(=O)N[C@@H](CCCCN)C(=O)N[C@@H](Cc2ccc(O)cc2)C(=O)N[C@H](C(=O)N[C@@H](Cc2ccccc2)C(N)=O)C(C)C)NC(=O)[C@H](Cc2c[nH]c4ccccc24)NC(=O)[C@H](CCSC)NC(=O)[C@H](Cc2c[nH]cn2)NC(=O)[C@H]([C@@H](C)O)NC(=O)[C@H](CCCNC(=N)N)NC(=O)[C@H](CO)NC3=O)NC(=O)[C@H](CCCCN)NC(=O)[C@H](CC(=O)O)NC(=O)[C@H](CC(N)=O)NC(=O)[C@H](CC(=O)O)NC(=O)[C@@H]2CCCN2C1=O [compound 770] (H-DCLGAMRKCIPDNDKCCRPNLVCSRTHMWCKYVF-NH2; disulfide 2-17, 9-23, 16-30) | 6.00 | 4.34 | 5.39
8 | CC[C@H](C)[C@@H]1NC(=O)[C@@H]2CSSC[C@@H]3NC(=O)[C@H](C(C)C)NC(=O)[C@H](CC(C)C)NC(=O)[C@H](CC(N)=O)NC(=O)[C@@H]4CCCN4C(=O)[C@H](CCCNC(=N)N)NC(=O)[C@H](CSSC[C@H](NC(=O)[C@@H](N)CC(=O)O)C(=O)N[C@@H](CC(C)C)C(=O)NCC(=O)N[C@@H](C)C(=O)N[C@@H](CCSC)C(=O)N[C@@H](CCCNC(=N)N)C(=O)N[C@@H](CCCCN)C(=O)N2)NC(=O)[C@H](CSSC[C@@H](C(=O)N[C@@H](CCCCN)C(=O)N[C@@H](Cc2ccc(O)cc2)C(=O)N[C@H](C(=O)N[C@@H](Cc2ccccc2)C(N)=O)C(C)C)NC(=O)[C@H](Cc2c[nH]c4ccccc24)NC(=O)[C@H](CCCCNC)NC(=O)[C@H](Cc2c[nH]cn2)NC(=O)[C@H]([C@@H](C)O)NC(=O)[C@H](CCCNC(=N)N)NC(=O)[C@H](CO)NC3=O)NC(=O)[C@H](CCCCN)NC(=O)[C@H](CC(=O)O)NC(=O)[C@H](CC(N)=O)NC(=O)[C@H](CC(=O)O)NC(=O)[C@@H]2CCCN2C1=O [compound 771] (H-DCLGAMRKCIPDNDKCCRPNLVCSRTH[Lys(Me)]WCKYVF-NH2; disulfide 2-17, 9-23, 16-30) | 5.80 | 4.40 | 5.74
